Test results: patent EP0233461B2, “4,5,6-Substituted-2-pyrimidinamines” (AMERICAN CYANAMID COMPANY, priority 1986, dated 1987)
Counter-ions that a name gives are not always drawn. Like-named read-outs stand apart in the source and are kept apart here.

Tested on: human basophils
Experiment: Inhibition of histamine release from immunologically stimulated human basophils
Type: cell-based
Settings: concentration causing 50% inhibition of histamine release, by linear regression, active if IC50 ≦ 48 µM
Method in brief: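 Leukocytes from sedimented human blood, washed in Tris-A and resuspended in Tris-ACM, were challenged with anti-IgE or antigen, with or without compound, for 60 min at 37 °C. Released histamine was measured fluorometrically after OPT derivatization and expressed as percent of total (perchloric acid lysate), corrected for spontaneous release.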

| Compound | IC50 (Homo sapiens, read-out: IC50) [µM] | also measured |
| --- | --- | --- |
| FC(F)(F)c1cccc(Nc2nccc(-c3ccco3)n2)c1 [4-(2-Furanyl)-N-[3-(trifluoromethyl)phenyl]-2-pyrimidinamine] | < 48 | – |
| CC(=NNC(N)=O)c1ccc(Nc2nccc(-c3cccnc3)n2)cc1 [2-[1-[4-[[4-(3-Pyridinyl)-2-pyrimidinyl]amino]phenyl]ethylidene]hydrazinecarboxamide] | 8.1 | – |
| c1ccc(Nc2nccc(-c3ccncc3)n2)cc1 [N-Phenyl-4-(4-pyridinyl)-2-pyrimidinamine, compound with 2-h] [N-Phenyl-4-(4-pyridinyl)-2-pyrimidinamine, compound with 2-hydroxy-1,2,3-propanetricarboxylate (2:1)] | – | IC50 (read-out: IC50): 3.5 µM |
| FC(F)(F)c1cccc(Nc2nccc(-c3ccccn3)n2)c1 [4-(2-Pyridinyl)-N-[3-(trifluoromethyl)phenyl]-2-pyrimidinamine] | 2.9 | – |
| Cc1cc(-c2ccccn2)nc(Nc2ccccc2)n1 [4-Methyl-N-phenyl-6-(2-pyridinyl)-2-pyrimidinamine] | 26.8 | – |
| CN(C)c1ccc(Nc2nccc(-c3ccco3)n2)cc1 [N'-[4-(2-Furanyl)-2-pyrimidinyl]-N,N-dimethyl-1,4-benzenediamine] | 1.9 | – |
| CC(O)c1ccc(Nc2nccc(-c3cccnc3)n2)cc1 (stereo not drawn) [α-Methyl-4-[[4-(3-pyridinyl)-2-pyrimidinyl]amino]benzenemethanol] | 4.5 | – |
| Cc1cc(C)cc(Nc2nccc(-c3cccs3)n2)c1 [N-(3,5-Dimethylphenyl)-4-(2-thienyl)-2-pyrimidinamine] | 4.3 | – |
| Cc1cccc(Nc2nccc(-c3cccs3)n2)c1 [N-(3-Methylphenyl)-4-(2-thienyl)-2-pyrimidinamine, sulfate] | – | IC50 (sulfate): 3 µM |
| CC(=NO)c1ccc(Nc2nccc(-c3cccnc3)n2)cc1 [1-[4-[[4-(3-Pyridinyl)-2-pyrimidinyl]amino]phenyl]ethanone, oxime] | 11.4 | – |
| CCN(CC)CCNC(=O)c1ccc(Nc2nccc(-c3cccnc3)n2)cc1 [N-[2-(Diethylamino)ethyl]-4-[[4-(3-pyridinyl)-2-pyrimidinyl]amino]benzamide] | 0.8 | – |
| COc1cccc(Nc2nccc(-c3cc4ccccc4o3)n2)c1 [4-(2-Benzofuranyl)-N-(3-methoxyphenyl)-2-pyrimidinamine] | 1.2 | – |
| CCc1ccc(Nc2nccc(-c3cccnc3)n2)cc1 [N-(4-Ethylphenyl)-4-(3-pyridinyl)-2-pyrimidinamine] | < 48 | – |
| Cc1cccc(Nc2nccc(-c3ccc[nH]3)n2)c1 [N-(3-Methylphenyl)-4-(1H-pyrrol-2-yl)-2-pyrimidinamine] | 11.1 | – |
| Cc1cc(C)cc(Nc2nccc(-c3cc(C)oc3C)n2)c1 [4-(2,5-Dimethyl-3-furanyl)-N-(3,5-dimethylphenyl)-2-pyrimidinamine] | 4.1 | – |
| Fc1ccc(Nc2nccc(-c3ccncc3)n2)cc1 [N-(4-Fluorophenyl)-4-(4-pyridinyl)-2-pyrimidinamine] | 1.9 | – |
| O=C(O)c1ccc(Nc2nccc(-c3cccnc3)n2)cc1 [4-[[4-(3-Pyridinyl)-2-pyrimidinyl]amino]benzoic acid] | 7.6 | – |
| Cc1cc(-c2ccncc2)nc(Nc2ccc(N(C)C)cc2)n1 [N,N-Dimethyl-N'-[4-methyl-6-(4-pyridinyl)-2-pyrimidinyl]-1,4-benzenediamine] | 37.7 | – |
| NS(=O)(=O)c1ccc(Nc2nccc(-c3cccnc3)n2)cc1 [4-[[4-(3-pyridinyl)-2-pyrimidinyl]amino]benzenesulfonamide] | 0.2 | – |
| CCc1cccc(Nc2nccc(-c3cccs3)n2)c1 [N-(3-Ethylphenyl)-4-(2-thienyl)-2-pyrimidinamine] | 48 | – |
| CC(=O)Nc1ccc(Nc2nccc(-c3cccs3)n2)cc1 [N-[4-[[4-(2-Thienyl)-2-pyrimidinyl]amino]-phenyl]acetamide] | 0.2 | – |
| CC(=O)Nc1ccc(Nc2nccc(-c3ccncc3)n2)cc1 [N-[4-[[4-(4-Pyridinyl)-2-pyrimidinyl]amino]-phenyl]acetamide] | 5.3 | – |

| Compound | IC50 (Homo sapiens, read-out: IC50) [µM] | also measured |
| --- | --- | --- |
| Cc1cccc(Nc2nccc(-c3cc(C)oc3C)n2)c1 [4-(2,5-Dimethyl-3-furanyl)-N-(3-methylphenyl)-2-pyrimidinamine] | 28.5 | – |
| c1ccc2c(Nc3nccc(-c4ccncc4)n3)cccc2c1 [N-1-Naphthalenyl-4-(4-pyridinyl)-2-pyrimidinamine] | 31.3 | – |
| CN(C)c1ccc(Nc2nccc(-c3cccnc3)n2)cc1 [N,N-Dimethyl-N'-[4-(3-pyridinyl)-2-pyrimidinyl]-1,4-benzenediamine, trihydrochloride] | – | IC50 (trihydrochloride, read-out: IC50): 1.5 µM |
| COc1ccc(C)cc1Nc1nccc(-c2ccncc2)n1 [N-(2-Methoxy-5-methylphenyl)-4-(4-pyridinyl)-2-pyrimidinamine] | 6.9 | – |
| CN1CCN(c2ccc(Nc3nccc(-c4ccccn4)n3)cc2)CC1 [N-[4-(4-Methyl-1-piperazinyl)phenyl]-4-(2-pyridinyl)-2-pyrimidinamine] | < 24 | – |
| NS(=O)(=O)c1cccc(Nc2nccc(-c3ccncc3)n2)c1 [3-[[4-(4-Pyridinyl)-2-pyrimidinyl]-amino]benzenesulfonamide] | 0.5 | – |
| CN(C)CCCOc1ccc(Nc2nccc(-c3ccncc3)n2)cc1 [N-[4-[3-(Dimethylamino)propoxy]phenyl]-4-(4-pyridinyl)-2-pyrimidinamine] | 1.3 | – |
| Cc1cccc(Nc2nccc(-c3ccc(C)o3)n2)c1 [4-(5-Methyl-2-furanyl)-N-(3-methylphenyl)-2-pyrimidinamine] | 2 | – |
| COc1cccc(Nc2nccc(-c3ccc(C)o3)n2)c1 [N-(3-Methoxyphenyl)-4-(5-methyl-2-furanyl)-2-pyrimidinamine] | 1.2 | – |
| c1ccc(Nc2nccc(-c3ccncc3)n2)cc1 [N-Phenyl-4-(4-pyridinyl)-2-pyrimidinamine, phosphate] | – | IC50 (phosphate, read-out: IC50): 3.3 µM |
| Cc1cc(C)cc(Nc2nccc(-c3cccnc3)n2)c1 [N-(3,5-Dimethylphenyl)-4-(3-pyridinyl)-2-pyrimidinamine, phosphate] | – | IC50 (phosphate, read-out: IC50): 3 µM |
| Cc1cccc(Nc2nccc(-c3cccs3)n2)c1 [N-(3-Methylphenyl)-4-(2-thienyl)-2-pyrimidinamine] | 0.3 | – |
| CN(C)c1ccc(Nc2nccc(-c3ccccn3)n2)cc1 [N-[4-(Dimethylamino)phenyl]-4-(2-pyridinyl)-2-pyrimidinamine] | – | IC50 (read-out: IC50): 2.7 µM |
| CC(=O)Nc1cccc(Nc2nccc(-c3ccccn3)n2)c1 [N-[3-[[4-(2-Pyridinyl)-2-pyrimidinyl]amino]-phenyl]acetamide] | 0.3 | – |
| CC(=O)Nc1ccc(Nc2nccc(-c3ccccn3)n2)cc1 [N-[4-[[4-(2-Pyridinyl)-2-pyrimidinyl]amino]-phenyl]acetamide] | 1.5 | – |
| CC(=O)N(C)c1ccc(Nc2nccc(-c3ccccn3)n2)cc1 [N-Methyl-N-[4-[[4-(2-pyridinyl)-2-pyrimidinyl]amino]phenyl]acetamide] | 0.6 | – |
| Cc1ccccc1Nc1nccc(-c2ccncc2)n1 [N-(2-Methylphenyl)-4-(4-pyridinyl)-2-pyrimidinamine] | 3.9 | – |
| COc1ccc(Nc2nccc(-c3cccnc3)n2)cc1 [N-(4-Methoxyphenyl)-4-(3-pyridinyl)-2-pyrimidinamine, sulfate] | – | IC50 (Homo sapiens): < 48 µM |
| CC(NC=O)c1cccc(Nc2nccc(-c3cccnc3)n2)c1 (centres unmarked) [N-[1-[3-[[4-(3-Pyridinyl)-2-pyrimidinyl]amino]phenyl]ethyl]formamide] | 4.6 | – |
| COc1ccc(Nc2nccc(-c3cccnc3)n2)cc1 [N-(4-Methoxyphenyl)-4-(3-pyridinyl)-2-pyrimidinamine] | – | IC50 (read-out: IC50): 1.4 µM |
| COc1ccc(Nc2nccc(-c3cc[n+](C)cc3)n2)cc1 [4-[2-[(4-Methoxyphenyl)amino]-4-pyrimidinyl]-1-methylpyridinium, iodide] | 33.3 | – |
| c1ccc(-c2ccnc(Nc3ccc(-n4ccnc4)cc3)n2)nc1 [N-[4-(1H-Imidazol-1-yl)phenyl]-4-(2-pyridinyl)-2-pyrimidinamine] | 1.8 | – |
